Measurements as given in ChEMBL document CHEMBL5543088, “Targeting G-rich sequence to regulate the transcription of murine double minute (MDM) genes in triple-negative breast cancers” (Eur J Med Chem, 2024).
Activity calls are given as the source filed them. The rule behind the calls is not given here.

Assays:
HCC1806 = experiment: Inhibition of cell proliferation in human HCC1806 cells by MTT assay; assay type: functional, cell-based
HCC1937 [1] = experiment: Inhibition of cell proliferation in human HCC1937 cells by MTT assay; assay type: functional, cell-based
MDA-MB-231 = experiment: Inhibition of cell proliferation in human MDA-MB-231 cells by MTT assay; assay type: functional, cell-based
[2] = Inhibition of cell proliferation in HUVEC cells by MTT assay; assay type: toxicity, cell-based; conditions: human
[3] = Inhibition of cell proliferation in human HL7702 cells by MTT assay; assay type: toxicity, cell-based; conditions: HL7702 (L02) cells
RNA [4] = experiment: Binding affinity to FAM/TAMRA-labeled G1 of MDM2 (unknown origin) assessed as thermal stability by measuring increase in melting temperature by FRET assay; assay type: nucleic-acid assay; conditions: Homo sapiens
RNA [5] = experiment: Binding affinity to FAM/TAMRA-labeled G5 of MDMX (unknown origin) assessed as thermal stability by measuring increase in melting temperature by FRET assay; assay type: nucleic-acid assay; conditions: Homo sapiens
RNA [6] = experiment: Binding affinity to G1 of MDM2 (unknown origin) at 10 uM by CD spectrum assay; assay type: nucleic-acid assay; conditions: Homo sapiens
RNA [7] = experiment: Binding affinity to G5 of MDMX (unknown origin) at 10 uM by CD spectrum assay; assay type: nucleic-acid assay; conditions: Homo sapiens, filed as activator
Quadruplex DNA [8] = experiment: Binding affinity to c-myc DNA G-quadruplex (unknown origin) assessed as thermal stability by measuring increase in melting temperature by FRET assay; assay type: nucleic-acid assay
Quadruplex RNA [9] = experiment: Binding affinity to NRAS RNA G-quadruplex (unknown origin) assessed as thermal stability by measuring increase in melting temperature by FRET assay; assay type: nucleic-acid assay
Quadruplex DNA [10] = experiment: Binding affinity to biotin-labeled c-myc DNA G-quadruplex (unknown origin) immobilized on SA biosensor assessed as dissociation constant by BLI assay; assay type: nucleic-acid assay
Quadruplex RNA [11] = experiment: Binding affinity to biotin-labeled NRAS RNA G-quadruplex (unknown origin) immobilized on SA biosensor assessed as dissociation constant by BLI assay; assay type: nucleic-acid assay
DNA = experiment: Binding affinity to biotin-labeled ss26 DNA (unknown origin) immobilized on SA biosensor assessed as dissociation constant by BLI assay; assay type: nucleic-acid assay
dsDNA = experiment: Binding affinity to biotin-labeled ds26 DNA (unknown origin) immobilized on SA biosensor assessed as dissociation constant by BLI assay; assay type: nucleic-acid assay
RNA [12] = experiment: Inhibition of wild-type G1 of MDM2 expressed in human HCC1937 cells upto 3 uM incubated for 24 hrs by luciferase reporter assay; assay type: cell-based
RNA [13] = experiment: Induction of wild-type G5 of MDMX expressed in human HCC1937 cells upto 3 uM incubated for 24 hrs by luciferase reporter assay; assay type: cell-based; conditions: filed as activator
RNA [14] = experiment: Inhibition of G1 mutant of MDM2 expressed in human HCC1937 cells upto 3 uM incubated for 24 hrs by luciferase reporter assay; assay type: cell-based
RNA [15] = experiment: Induction of G5 mutant of MDMX expressed in human HCC1937 cells upto 3 uM incubated for 24 hrs by luciferase reporter assay; assay type: cell-based
HCC1937 [16] = experiment: Downregulation of MDM2 mRNA level in human HCC1937 cells upto 3 uM by qPCR analysis; assay type: functional, cell-based
HCC1937 [17] = experiment: Upregulation of MDMX mRNA level in human HCC1937 cells upto 3 uM by qPCR analysis; assay type: functional, cell-based
HCC1937 [18] = experiment: Downregulation of MDM2 level in human HCC1937 cells upto 6 uM incubated for 24 hrs by Western blot analysis; assay type: functional, cell-based
HCC1937 [19] = experiment: Upregulation of MDMX level in human HCC1937 cells upto 6 uM incubated for 24 hrs by Western blot analysis; assay type: functional, cell-based
HCC1937 [20] = experiment: Induction of apoptosis in human HCC1937 cells assessed as increase in cleaved caspase-3 level upto 6 uM incubated for 24 hrs by Western blot analysis; assay type: functional, cell-based
HCC1937 [21] = experiment: Effect on DNAPKcs phosphorylation at Ser2056 in human HCC1937 cells upto 6 uM incubated for 24 hrs by Western blot analysis; assay type: functional, cell-based
HCC1937 [22] = experiment: Effect on H2AX phosphorylation at Ser139 in human HCC1937 cells upto 6 uM incubated for 24 hrs by Western blot analysis; assay type: functional, cell-based
HCC1937 [23] = experiment: Inhibition of cell proliferation in human HCC1937 cells assessed as decrease in cell survival at 6 uM relative to control; assay type: functional
HCC1937 [24] = experiment: Effect on cell proliferation in human HCC1937 cells overexpressing BLM assessed as cell survival at 6 uM relative to control; assay type: functional; conditions: read-out: Activity
RNA [25] = experiment: Binding affinity to TAMRA-labeled wild-type G1 of MDM2 transfected in human HCC1937 cells at 3 uM incubated for 6 hrs by BG4 antibody based analysis; assay type: cell-based
RNA [26] = experiment: Binding affinity to TAMRA-labeled G1 mutant of MDM2 transfected in human HCC1937 cells at 3 uM incubated for 6 hrs by BG4 antibody based analysis; assay type: cell-based
RNA [27] = experiment: Binding affinity to TAMRA-labeled wild-type G5 of MDMX transfected in human HCC1937 cells at 3 uM incubated for 6 hrs by BG4 antibody based analysis; assay type: cell-based; conditions: filed as activator
RNA [28] = experiment: Binding affinity to TAMRA-labeled G5 mutant of MDMX transfected in human HCC1937 cells at 3 uM incubated for 6 hrs by BG4 antibody based analysis; assay type: cell-based
HCC1937 [29] = experiment: Inhibition of cell proliferation in siMDM2-treated human HCC1937 cells by MTT assay; assay type: functional, cell-based; conditions: dose <= 6.0 µM
HCC1937 [30] = experiment: Inhibition of cell proliferation in Nutlin3a-treated human HCC1937 cells by MTT assay; assay type: functional, cell-based
HCC1937 [31] = experiment: Inhibition of cell proliferation in siMDMX-treated human HCC1937 cells by MTT assay; assay type: functional, cell-based
HCC1937 [32] = experiment: Upregulation of MDMX level in siMDM2-treated human HCC1937 cells upto 6 uM by Western blot analysis; assay type: functional, cell-based
HCC1937 [33] = experiment: Upregulation of MDMX level in siMDMX-treated human HCC1937 cells upto 6 uM by Western blot analysis; assay type: functional, cell-based
HCC1937 [34] = experiment: Downregulation of MDM2 level in siMDMX-treated human HCC1937 cells upto 6 uM by Western blot analysis; assay type: functional, cell-based
HCC1937 [35] = experiment: Induction of apoptosis in siMDMX-treated human HCC1937 cells assessed as increase in cleaved caspase-3 level upto 6 uM by Western blot analysis; assay type: functional, cell-based
HCC1937 [36] = experiment: Induction of apoptosis in siMDM2-treated human HCC1937 cells assessed as increase in cleaved caspase-3 level upto 6 uM by Western blot analysis; assay type: functional, cell-based
HCC1937 [37] = experiment: Inhibition of apoptosis in siMDM2-treated human HCC1937 cells at 6 uM (reference value: 55.8 %); assay type: functional
HCC1937 [38] = experiment: Induction of apoptosis in siMDMX-treated human HCC1937 cells at 6 uM (reference value: 55.8 %); assay type: functional
HCC1937 [39] = experiment: Downregulation of MDM2 level in human HCC1937 cells upto 3 uM incubated for 24 hrs by Western blot analysis; assay type: functional, cell-based
HCC1937 [40] = experiment: Downregulation of MDMX level in human HCC1937 cells upto 3 uM incubated for 24 hrs by Western blot analysis; assay type: functional, cell-based
HCC1937 [41] = experiment: Effect on cell proliferation in human HCC1937 cells overexpressing BLM assessed as cell survival at 6 uM; assay type: functional, cell-based
RNA [42] = experiment: Binding affinity to biotin-labeled G1 of MDM2 (unknown origin) immobilized on SA biosensor assessed as dissociation constant by BLI assay; assay type: nucleic-acid assay, Homo sapiens
RNA [43] = experiment: Binding affinity to biotin-labeled G5 of MDMX (unknown origin) immobilized on SA biosensor assessed as dissociation constant by BLI assay; assay type: nucleic-acid assay, Homo sapiens
RNA [44] = experiment: Inhibition of wild-type G1 of MDM2 expressed in human HCC1937 cells upto 1 uM incubated for 24 hrs by luciferase reporter assay; assay type: cell-based
RNA [45] = experiment: Induction of wild-type G5 of MDMX expressed in human HCC1937 cells upto 1 uM incubated for 24 hrs by luciferase reporter assay; assay type: cell-based; conditions: filed as activator

N=C(N)SCC1c2ccccc2CCc2ccccc21
IC50 (HCC1806): > 50 µM
IC50 (HCC1937 [1]): > 50 µM
IC50 (MDA-MB-231): 48 µM
IC50 [2]: > 50 µM
IC50 [3]: > 50 µM

Brc1c2ccccc2c(C[P+](c2ccccc2)(c2ccccc2)c2ccccc2)c2ccccc12.[Br-]
inhibition (HCC1937 [1]; dose <= 6.0 µM): Dose-Dependent Effect
ΔTm (RNA [4]): 33 °C
ΔTm (RNA [5]): 30 °C
Activity (RNA [6]): Active
Activity (RNA [7]): Active
ΔTm (Quadruplex DNA [8]): 18 °C
ΔTm (Quadruplex RNA [9]): 0.1 °C
Kd (Quadruplex DNA [10]): 15.6 µM
Kd (Quadruplex RNA [11]): 24 µM
Kd (DNA): 10.8 µM
Kd (dsDNA): 23.5 µM
inhibition (RNA [12]): Active
Activity (RNA [13]): Active
inhibition (RNA [14]): inactive
Activity (RNA [15]): inactive
Activity (HCC1937 [16]): Active
Activity (HCC1937 [17]): Active
Activity (HCC1937 [18]): Active
Activity (HCC1937 [19]): Active
Activity (HCC1937 [20]): Active
Activity (HCC1937 [21]): inactive
Activity (HCC1937 [22]): inactive
inhibition at 6 µM (HCC1937 [23]): 27.7%
viability at 6 µM (HCC1937 [24]): 85.3%
Activity (RNA [25]): Active
Activity (RNA [26]): inactive
Activity (RNA [27]): Active
Activity (RNA [28]): inactive
inhibition (HCC1937 [29]): inactive
inhibition (HCC1937 [30]): inactive
inhibition (HCC1937 [31]): Active
Activity (HCC1937 [32]): Active
Activity (HCC1937 [33]): Active
Activity (HCC1937 [34]): Active
Activity (HCC1937 [35]): Active
Activity (HCC1937 [36]): inactive
inhibition at 6 µM (HCC1937 [37]): 30.6%
Activity (HCC1937 [38]): ~70.4%

Cc1c2ccccc2c(CSC(=N)N)c2ccccc12
IC50 (HCC1806): 6.9 µM
IC50 (HCC1937 [1]): 6.4 µM
IC50 (MDA-MB-231): 2.1 µM
IC50 [2]: 3.5 µM
IC50 [3]: 5 µM
ΔTm (Quadruplex RNA [9]): -0.2 °C
Activity (HCC1937 [39]): Active
Activity (HCC1937 [40]): Active
Activity (HCC1937 [41]): inactive

N=C(N)SCc1ccc([N+](=O)[O-])cc1
IC50 (HCC1806): > 50 µM
IC50 (HCC1937 [1]): > 50 µM
IC50 (MDA-MB-231): > 50 µM
IC50 [2]: > 50 µM
IC50 [3]: > 50 µM

c1ccc([P+](Cc2c3ccccc3cc3ccccc23)(c2ccccc2)c2ccccc2)cc1
Kd (RNA [42]): 10.6 µM
Kd (RNA [43]): 8.8 µM
ΔTm (RNA [4]): 24 °C
ΔTm (RNA [5]): 22 °C
ΔTm (Quadruplex DNA [8]): 16.5 °C
ΔTm (Quadruplex RNA [9]): 0.2 °C
Kd (Quadruplex DNA [10]): > 25 µM

N=C(N)SCc1cccc2ccccc12
IC50 (HCC1806): > 50 µM
IC50 (HCC1937 [1]): > 50 µM
IC50 (MDA-MB-231): > 50 µM
IC50 [2]: > 50 µM
IC50 [3]: > 50 µM

Cc1ccc(CSC(=N)N)cc1
IC50 (HCC1806): > 50 µM
IC50 (HCC1937 [1]): > 50 µM
IC50 (MDA-MB-231): > 50 µM
IC50 [2]: > 50 µM
IC50 [3]: > 50 µM

N=C(N)SCc1c2ccccc2c(Br)c2ccccc12
IC50 (HCC1806): 3.5 µM
IC50 (HCC1937 [1]): 6.4 µM
IC50 (MDA-MB-231): 8.2 µM
IC50 [2]: 20.3 µM
IC50 [3]: 24.5 µM

N=C(N)SCc1ccc2ccccc2c1
IC50 (HCC1806): > 50 µM
IC50 (HCC1937 [1]): > 50 µM
IC50 (MDA-MB-231): > 50 µM
IC50 [2]: > 50 µM
IC50 [3]: > 50 µM

C[n+]1ccc(-c2c3nc(c(-c4cc[n+](C)cc4)c4ccc([nH]4)c(-c4cc[n+](C)cc4)c4ccc([nH]4)c(-c4cc[n+](C)cc4)c4nc2C=C4)C=C3)cc1
inhibition (RNA [44]): Active
Activity (RNA [45]): Active

N=C(N)SCc1c2ccccc2nc2ccccc12
IC50 (HCC1806): > 50 µM
IC50 (HCC1937 [1]): > 50 µM
IC50 (MDA-MB-231): > 50 µM
IC50 [2]: > 50 µM
IC50 [3]: > 50 µM

N=C(N)SCc1c2ccccc2cc2ccccc12
IC50 (HCC1806): 12.5 µM
IC50 (HCC1937 [1]): 16.8 µM
IC50 (MDA-MB-231): 6 µM
IC50 [2]: 9.6 µM
IC50 [3]: 20.7 µM

Cc1c2ccccc2c(C[P+](c2ccccc2)(c2ccccc2)c2ccccc2)c2ccccc12
Kd (RNA [42]): 9.8 µM
Kd (RNA [43]): 7.3 µM
ΔTm (RNA [4]): 25 °C
ΔTm (RNA [5]): 22 °C
ΔTm (Quadruplex DNA [8]): 17 °C
ΔTm (Quadruplex RNA [9]): -0.4 °C
Kd (Quadruplex DNA [10]): > 25 µM
